This is an account of results in patent US20230150986A1, “ANTAGONISTS OF THE MUSCARINIC ACETYLCHOLINE RECEPTOR M4” (Vanderbilt University, priority 2019, published 2023).

The structures appear in SMILES notation. Read-outs that look alike come from different tables or passages of the source.

A word on the efflux ratio: it is a quotient of directional permeabilities that is used to spot active efflux.

One data set concerns the target T1, Human M4 (Homo sapiens, UniProt P08173).
T1 construct: Human or rat M4 cDNA, along with the chimeric G protein Gq,5, were transfected into Chinese hamster ovary (CHO-K1) cells; expressed in transfected cells; host or cells: CHO-K1 (M4/Gqi5/CHO)
T1 sequence (P08173 1-479): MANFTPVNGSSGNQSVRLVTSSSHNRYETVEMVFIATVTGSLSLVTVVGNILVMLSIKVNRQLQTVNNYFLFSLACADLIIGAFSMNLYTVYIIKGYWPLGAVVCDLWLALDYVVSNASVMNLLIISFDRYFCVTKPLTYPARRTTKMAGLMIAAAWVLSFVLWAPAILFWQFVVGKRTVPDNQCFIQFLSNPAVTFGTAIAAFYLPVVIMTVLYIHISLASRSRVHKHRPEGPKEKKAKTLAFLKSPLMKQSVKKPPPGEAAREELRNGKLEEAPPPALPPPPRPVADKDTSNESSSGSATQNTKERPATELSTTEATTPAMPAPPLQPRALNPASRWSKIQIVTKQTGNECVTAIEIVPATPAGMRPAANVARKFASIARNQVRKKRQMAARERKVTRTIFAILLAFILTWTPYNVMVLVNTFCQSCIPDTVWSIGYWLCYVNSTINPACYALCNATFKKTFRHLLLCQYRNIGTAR
Nature of the data set: mAChR M4 cell-based functional assay (calcium flux, decrease of EC80 acetylcholine response). The following applies: for Human M4 Emin: % ACh maximum at 30 μM; for IC50: CHO-K1 cells with human M4 and Gqi5, EC80 acetylcholine. Put shortly:
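CHO-K1 cells stably co-expressing M4 with chimeric Gqi5, loaded with Fluo-4 AM for 50 min at 37 °C; compounds added as 10-point 1:3 curves, then acetylcholine at EC20 (143 s) and EC80 (268 s). Calcium read by FDSS fluorescence ratio; IC50 from four-parameter fit of decrease in EC80 acetylcholine response.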
For orientation: Calcium flux is commonly read through the fluorescence of an indicator in the cells.

Another data set concerns the target T2, cytochrome P450 2D6 (Homo sapiens, UniProt P10635).
T2 construct: human liver microsomes (HLM; 0.1 mg/mL); from tissue; host or cells: human liver microsomes
Nature of the data set: Cytochrome P450 cocktail inhibition assay, 2D6 (dextromethorphan). In kind it is in vitro ADME. The note with it: human liver microsomes 0.1 mg/mL; read-out: CYP Inhibition (2D6). On the procedure:
(§1) Solutions of substrates for cytochrome P450 enzymes (1A2: Phenacetin, 10 μM; 2C9: Diclofenac, 5 μM; 2D6: Dextromethorphan, 5 μM; 3A4: Midazolam, 2 μM; as a mixture), test compound (VU6028418; multiple concentrations), and the positive control for pan-P450 inhibition (miconazole; multiple concentrations) were prepared. A reaction mixture of assay buffer (100 mM Kpi at pH 7.4), human liver microsomes (HLM; 0.1 mg/mL), and the substrate mixture were aliquoted into a 96-deepwell plate. The test compound and control were then added to the plate such that the final concentration of test compound ranged from 0.1-30 μM (two replicates per concentration). The assay plate was vortexed (briefly) and pre-incubated at 37° C. in an orbital shaker for 15 minutes. The reaction was initiated by addition of NADPH (1 mM, final concentration) and continued for 8 min before it was quenched by acetonitrile (2× volume) containing an LCMS internal standard (carbamazepine, 50 nM). The plate was then centrifuged (4000 rcf, 4° C., 10 min), and the resulting supernatant was diluted with water (1× volume) for LC-MS/MS. Assay samples were analyzed via electrospray ionization on an AB Sciex API-4000 (Foster City, Calif.) triple-quadrupole mass spectrometer coupled to Agilent Technologies 1290 Infinity series pumps (Santa Clara, Calif.), and a Leap Technologies CTC PAL auto -sampler (Carrboro, NC). Analytes were separated by gradient elution on a Phenomenex Kinetex (C18 2.1×50 mm 5 μm) column (Torrance, Calif.) thermostated at 40° C. The HPLC mobile phase A was 0.1% formic acid in water (pH unadjusted), and the mobile phase B was 0.1% formic acid in acetonitrile (pH unadjusted). […] The total run time was 2.5 min and the HPLC flow rate was 0.5 mL/min. The source temperature was set at 500° C. and mass spectral analyses were performed using multiple reaction monitoring (MRM) with mass transitions specific to each substrate's metabolite utilizing a Turbo-Ionspray® source in positive ionization mode (5.0 kV spray voltage). The test compound and control IC50 values for each enzyme were obtained by quantitating the inhibition of metabolite formation for each substrate. A 0 μM test compound (or control) conditions represented 100% enzymatic activity, and the effect of increasing test compound concentrations on enzymatic activity was then calculated from the % of control activity. Inhibition curves were fitted using XLfit 5.2.2 (four-parameter logistic model, equation 201) in order to calculate the concentration that produced half-maximal inhibition (IC50) of each enzyme.
(Liver microsomes are a subcellular fraction often used to study metabolism.)

The next data set concerns the target T3, cytochrome P450 2C9 (Homo sapiens, UniProt P11712).
T3 construct: human liver microsomes (HLM; 0.1 mg/mL); from tissue; host or cells: human liver microsomes
As to the kind of experiment: Cytochrome P450 cocktail inhibition assay, 2C9 (diclofenac). In kind it is in vitro ADME. The following applies: human liver microsomes 0.1 mg/mL; read-out: CYP Inhibition (2C9). On the procedure: as §1

The next data set deals with T4, cytochrome P450 1A2 (Homo sapiens, UniProt P05177).
T4 construct: human liver microsomes (HLM; 0.1 mg/mL); from tissue; host or cells: human liver microsomes
T4 sequence (P05177 1-516): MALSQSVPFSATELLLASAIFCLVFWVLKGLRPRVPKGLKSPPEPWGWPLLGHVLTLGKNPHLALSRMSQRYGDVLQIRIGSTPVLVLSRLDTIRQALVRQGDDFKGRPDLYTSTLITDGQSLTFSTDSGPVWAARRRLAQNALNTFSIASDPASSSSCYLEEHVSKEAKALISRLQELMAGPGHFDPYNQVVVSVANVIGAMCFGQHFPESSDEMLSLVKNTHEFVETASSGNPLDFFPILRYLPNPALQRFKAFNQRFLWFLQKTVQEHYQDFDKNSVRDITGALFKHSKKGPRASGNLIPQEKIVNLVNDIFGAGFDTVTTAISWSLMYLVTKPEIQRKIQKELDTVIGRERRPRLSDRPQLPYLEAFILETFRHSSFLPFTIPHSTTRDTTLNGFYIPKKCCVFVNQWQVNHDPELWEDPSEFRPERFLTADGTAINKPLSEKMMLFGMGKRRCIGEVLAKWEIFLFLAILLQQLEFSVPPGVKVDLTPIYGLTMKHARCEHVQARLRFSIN
Nature of the data set: Cytochrome P450 cocktail inhibition assay, 1A2 (phenacetin). In kind it is in vitro ADME. The following applies: human liver microsomes 0.1 mg/mL; read-out: CYP Inhibition (1A2). On the procedure: as §1

The next data set has as its target T5, cytochrome P450 3A4 (Homo sapiens, UniProt P08684).
T5 construct: human liver microsomes (HLM; 0.1 mg/mL); from tissue; host or cells: human liver microsomes
As to the kind of experiment: Cytochrome P450 cocktail inhibition assay, 3A4 (midazolam). In kind it is in vitro ADME. The note with it: human liver microsomes 0.1 mg/mL; read-out: CYP Inhibition (3A4). On the procedure:
as §1

The target of another data set is T6, P-gp (Homo sapiens, UniProt P08183).
T6 construct: expressed in transfected cells; host or cells: MDR1-MDCK
Nature of the data set: P-gp efflux in MDR1-MDCK cell monolayers. The following applies: dog, pH 7.4, MDCK-MDR1, 5 μM. In kind it is in vitro ADME. On the procedure:
MDR1-MDCK cell monolayers were grown to confluence on collagen-coated, microporous membranes in 12-well assay plates. The permeability assay buffer was Hanks' balanced salt solution containing 10 mM HEPES and 15 mM glucose at a pH of 7.4. The buffer in the receiver chamber also contained 1% bovine serum albumin. The dosing solution concentration was 5 μM of test article in the assay buffer. Cell monolayers were dosed on the apical side (A- to -B) or basolateral side (B- to -A) and incubated at 37° C. with 5% CO2 in a humidified incubator. Samples were taken from the donor and receiver chambers at 120 minutes Each determination was performed in duplicate. The flux of lucifer yellow was also measured post-experimentally for each monolayer to ensure no damage was inflicted to the cell monolayers during the flux period. All samples were assayed by LC-MS/MS using electrospray ionization.

For another data set, the system named is mice. The following applies: cited from earlier work.

T5 sequence (P08684 whole entry): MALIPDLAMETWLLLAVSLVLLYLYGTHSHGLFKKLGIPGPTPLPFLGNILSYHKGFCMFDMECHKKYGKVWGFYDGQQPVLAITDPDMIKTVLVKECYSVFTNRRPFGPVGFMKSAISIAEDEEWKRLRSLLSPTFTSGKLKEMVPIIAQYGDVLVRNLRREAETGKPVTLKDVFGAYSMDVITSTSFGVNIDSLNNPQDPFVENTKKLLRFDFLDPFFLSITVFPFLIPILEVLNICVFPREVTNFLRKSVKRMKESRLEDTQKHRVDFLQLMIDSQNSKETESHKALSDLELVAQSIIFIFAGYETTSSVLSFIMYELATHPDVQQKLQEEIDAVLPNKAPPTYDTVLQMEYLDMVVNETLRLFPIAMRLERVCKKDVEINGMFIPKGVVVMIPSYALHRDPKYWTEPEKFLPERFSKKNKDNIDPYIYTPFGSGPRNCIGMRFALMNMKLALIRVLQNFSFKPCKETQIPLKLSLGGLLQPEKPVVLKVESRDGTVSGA
T3 sequence (P11712 whole entry): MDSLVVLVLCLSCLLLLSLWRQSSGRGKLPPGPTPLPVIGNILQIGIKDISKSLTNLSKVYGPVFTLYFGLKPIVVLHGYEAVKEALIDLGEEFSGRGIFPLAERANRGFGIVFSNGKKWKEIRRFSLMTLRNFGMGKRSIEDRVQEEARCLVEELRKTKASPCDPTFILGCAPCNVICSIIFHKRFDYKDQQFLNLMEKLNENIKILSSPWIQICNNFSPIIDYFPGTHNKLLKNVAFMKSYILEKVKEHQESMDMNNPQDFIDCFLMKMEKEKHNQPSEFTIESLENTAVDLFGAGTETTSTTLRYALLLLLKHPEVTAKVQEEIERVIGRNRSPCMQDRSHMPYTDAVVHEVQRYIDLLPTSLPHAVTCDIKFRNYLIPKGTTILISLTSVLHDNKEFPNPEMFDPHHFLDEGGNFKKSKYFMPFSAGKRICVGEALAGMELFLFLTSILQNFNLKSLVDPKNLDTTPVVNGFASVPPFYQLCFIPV
T2 sequence (P10635 whole entry): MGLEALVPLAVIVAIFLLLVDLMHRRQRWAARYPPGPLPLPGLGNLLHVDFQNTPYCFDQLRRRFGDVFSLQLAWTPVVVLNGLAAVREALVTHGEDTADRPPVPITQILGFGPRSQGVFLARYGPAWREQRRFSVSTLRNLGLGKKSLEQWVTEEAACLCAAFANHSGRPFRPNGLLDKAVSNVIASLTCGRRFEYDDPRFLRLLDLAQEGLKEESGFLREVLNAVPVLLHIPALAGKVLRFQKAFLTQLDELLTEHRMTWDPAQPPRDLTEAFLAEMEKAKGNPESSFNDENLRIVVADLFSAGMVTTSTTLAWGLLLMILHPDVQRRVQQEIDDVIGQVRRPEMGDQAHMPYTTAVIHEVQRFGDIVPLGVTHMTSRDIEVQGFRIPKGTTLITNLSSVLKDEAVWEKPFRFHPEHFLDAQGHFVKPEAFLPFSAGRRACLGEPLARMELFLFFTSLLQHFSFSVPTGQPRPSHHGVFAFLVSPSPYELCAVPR
T6 sequence (P08183 whole entry): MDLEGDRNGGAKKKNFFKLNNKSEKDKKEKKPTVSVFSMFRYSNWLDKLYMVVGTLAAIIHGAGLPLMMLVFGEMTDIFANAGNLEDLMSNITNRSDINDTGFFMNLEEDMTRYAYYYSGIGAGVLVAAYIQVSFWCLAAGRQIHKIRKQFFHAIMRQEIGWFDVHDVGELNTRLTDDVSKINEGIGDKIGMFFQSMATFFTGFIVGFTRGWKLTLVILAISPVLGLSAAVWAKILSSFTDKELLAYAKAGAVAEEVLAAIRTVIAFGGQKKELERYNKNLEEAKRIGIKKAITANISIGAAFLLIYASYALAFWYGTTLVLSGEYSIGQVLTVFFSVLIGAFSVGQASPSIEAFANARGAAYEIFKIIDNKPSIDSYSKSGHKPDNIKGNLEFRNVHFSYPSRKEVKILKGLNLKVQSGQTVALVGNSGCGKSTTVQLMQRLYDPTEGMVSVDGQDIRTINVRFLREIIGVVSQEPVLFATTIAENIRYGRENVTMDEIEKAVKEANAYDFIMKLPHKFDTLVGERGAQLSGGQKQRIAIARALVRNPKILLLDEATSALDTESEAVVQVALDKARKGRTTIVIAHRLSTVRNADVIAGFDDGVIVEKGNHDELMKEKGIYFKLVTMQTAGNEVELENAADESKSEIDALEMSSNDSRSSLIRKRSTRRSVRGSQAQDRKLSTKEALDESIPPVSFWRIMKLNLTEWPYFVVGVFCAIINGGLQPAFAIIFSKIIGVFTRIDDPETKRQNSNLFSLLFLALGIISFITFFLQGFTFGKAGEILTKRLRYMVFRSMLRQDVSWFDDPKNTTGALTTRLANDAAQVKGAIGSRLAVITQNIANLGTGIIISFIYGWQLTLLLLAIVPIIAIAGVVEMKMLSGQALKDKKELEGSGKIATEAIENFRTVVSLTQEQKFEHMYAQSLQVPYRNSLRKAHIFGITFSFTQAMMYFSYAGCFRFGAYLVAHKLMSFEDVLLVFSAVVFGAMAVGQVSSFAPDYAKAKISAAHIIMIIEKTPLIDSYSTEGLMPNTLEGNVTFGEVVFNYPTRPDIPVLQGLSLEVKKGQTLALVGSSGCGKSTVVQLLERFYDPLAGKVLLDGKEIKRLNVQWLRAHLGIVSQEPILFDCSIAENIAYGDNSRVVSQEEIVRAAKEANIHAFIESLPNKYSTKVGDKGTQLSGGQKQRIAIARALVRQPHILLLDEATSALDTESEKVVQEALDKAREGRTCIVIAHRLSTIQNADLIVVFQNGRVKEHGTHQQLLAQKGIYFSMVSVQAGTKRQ

Take `Fc1cc(F)c(F)c(-c2ccc(N[C@H]3C[C@@H]4CN(CC5(F)CCCCC5)C[C@@H]4C3)nn2)c1` [Compound 87, (3aR,5s,6aS)-2-((1-fluorocyclohexyl)methyl)-N-(6-(2,3,5-trifluorophenyl)pyridazin-3-yl)octahydrocyclopenta[c]pyrrol-5-amine]: on Human M4, the “Human M4 Emin” value was 3% and the IC50 was found to be 41 nM.
Consider `Fc1cc(F)c(F)c(-c2ccc(N[C@H]3C[C@@H]4CN(Cc5ccccc5F)C[C@@H]4C3)nn2)c1` [Compound 89, (3aR,55,6aS)-2-(2-fluorobenzyl)-N-(6-(2,3,5-trifluoropheny)pyridazin-3-yl)octahydrocyclopenta[c]pyrrol-5-amine], for which, at Human M4, the “Human M4 Emin” value was found to be 3% and the IC50 amounted to 170 nM.
In the same order, the values of `Fc1cc(F)c(F)c(-c2ccc(N[C@H]3C[C@@H]4CN(Cc5cccc(F)c5F)C[C@@H]4C3)nn2)c1` [Compound 90, (3aR,5s,6aS)-2-(2,3-difluorobenzyl)-N-(6-(2,3,5-trifluorophenyl)pyridazin-3-yl)octahydrocyclopenta[c]pyrrol-5-amine] are 10% and 960 nM.
Take `Fc1ccc(CN2C[C@H]3C[C@H](Nc4ccc(-c5cc(F)cc(F)c5F)nn4)C[C@H]3C2)c(F)c1` [Compound 91, (3aR,5s,6aS)-2-(2,4-difluorobenzyl)-N-(6-(2,3,5-trifluorophenyl)pyridazin-3-yl)octahydrocyclopenta[c]pyrrol-5-amine]: on Human M4, the “Human M4 Emin” value stood at 4% and the IC50 was determined as 360 nM.
In the same order, the values of `[2H]C([2H])(c1c(F)cccc1F)N1C[C@H]2C[C@H](Nc3ccc(-c4cc(F)cc(F)c4F)nn3)C[C@H]2C1` [Compound 92, (3aR,5s,6aS)-2-((2,6-difluorophenyl)methyl-d2)-N-(6-(2,3,5-trifluorophenyl)pyridazin-3-yl)octahydrocyclopenta[c]pyrrol-5-amine] are 7% and 750 nM.
For `[2H]C([2H])(C1CCOCC1(F)F)N1C[C@H]2C[C@H](Nc3ccc(-c4cc(F)cc(F)c4F)nn3)C[C@H]2C1` (stereo partly drawn) [Compound 93, (3aR,5s,6aS)-2-((3,3-difluorotetrahydro-2H-pyran-4-yl)methyl-d2)-N-(6-(2,3,5-trifluorophenyl)pyridazin-3-yl)octahydrocyclopenta[c]pyrrol-5-amine] the same measures were 3% and 3.9 nM.
For the compound `Fc1ccc(Cl)c(-c2ccc(N[C@H]3C[C@@H]4CN(CC5CCOCC5)C[C@@H]4C3)nn2)c1` [reference compound], the IC50 at cytochrome P450 2D6 stood at 5.3 µM; at cytochrome P450 2C9 it was 0.15 µM; on cytochrome P450 1A2 it was 1100 nM; on cytochrome P450 3A4, 0.97 µM. Besides, on P-gp, the efflux ratio at 120 min, 5 μM came to 14.
In the same order, the values of `Fc1ccc(Cl)c(-c2ccc(N[C@H]3C[C@@H]4CN(Cc5ccccn5)C[C@@H]4C3)nn2)c1` [reference compound] are over 30 µM, 10.3 µM, over 30000 nM, 21.7 µM and 12.3.
Take `CN1[C@@H]2C[C@@H](OC(=O)[C@H](CO)c3ccccc3)C[C@H]1[C@@H]1O[C@@H]12` [scopolamine]: the “effect on catalepsy induced by haloperidol” value in the data set on mice (M4 KO mice) is recorded as “ineffective”; in the data set with mice (WT mice), “completely reversed”.
